Experiments:
Assay type in all cases: biochemical
PI3KB (p110b/p85a) = PI3KB (p110b/p85a) (Homo sapiens, UniProt P42338); experiment: PI3 kinase inhibition, HTRF assay
Description: (§1) Inhibition of PI3 kinases was studied using the HTRF (homogeneous time-resolved fluorescence) assay which is a universal method for identifying and characterizing the phosphotransferase activity induced by any ATP/ADP dependent target. The formation of ADP was detected by a specific monoclonal antibody labeled with Eu^3+ cryptate; the amount of ADP formed directly correlates with the amount of phosphorylated substrate in kinase assays.

PI3KA (p110a/p85a) = PI3KA (p110a/p85a) (Homo sapiens, UniProt P42336); experiment: PI3 kinase inhibition, HTRF assay
Description: as §1

PI3K (p120g) = PI3K (p120g) (Homo sapiens, UniProt P48736); experiment: PI3 kinase inhibition, HTRF assay; conditions: not tested at concentration higher than 1 μM
Description: as §1

PI4K2B = PI4K2B (Homo sapiens, UniProt Q8TCG2); experiment: PI4 kinase inhibition, ADP-Glo Kinase assay; conditions: 60 min, 10 μM ATP, not tested at concentration higher than 10 μM
Experimental: (§2) Inhibition of PI4 kinases was performed with the ADP-Glo™ Kinase assay which measures the ADP formed from a kinase reaction, where ADP is converted into ATP and then converted into light by Ultra-Glo™ Luciferase. Reactions were carried out for 60 min at 10 μM ATP. The luminescent signal produced in reaction is proportional to the kinase activity.

PI4KA = PI4KA (Homo sapiens, UniProt P42356); experiment: PI4 kinase inhibition, ADP-Glo Kinase assay; conditions: 60 min, 10 μM ATP
Experimental: as §2

PI4KB = PI4KB (Homo sapiens, UniProt Q9UBF8); experiment: PI4 kinase inhibition, ADP-Glo Kinase assay; conditions: 60 min, 10 μM ATP
Experimental: as §2

PI4K2A = PI4K2A (Homo sapiens, UniProt Q9BTU6); experiment: PI4 kinase inhibition, ADP-Glo Kinase assay; conditions: 60 min, 10 μM ATP, not tested at concentration higher than 10 μM
Experimental: as §2

Sequence of PI4KB (Q9UBF8 whole entry, species assumed): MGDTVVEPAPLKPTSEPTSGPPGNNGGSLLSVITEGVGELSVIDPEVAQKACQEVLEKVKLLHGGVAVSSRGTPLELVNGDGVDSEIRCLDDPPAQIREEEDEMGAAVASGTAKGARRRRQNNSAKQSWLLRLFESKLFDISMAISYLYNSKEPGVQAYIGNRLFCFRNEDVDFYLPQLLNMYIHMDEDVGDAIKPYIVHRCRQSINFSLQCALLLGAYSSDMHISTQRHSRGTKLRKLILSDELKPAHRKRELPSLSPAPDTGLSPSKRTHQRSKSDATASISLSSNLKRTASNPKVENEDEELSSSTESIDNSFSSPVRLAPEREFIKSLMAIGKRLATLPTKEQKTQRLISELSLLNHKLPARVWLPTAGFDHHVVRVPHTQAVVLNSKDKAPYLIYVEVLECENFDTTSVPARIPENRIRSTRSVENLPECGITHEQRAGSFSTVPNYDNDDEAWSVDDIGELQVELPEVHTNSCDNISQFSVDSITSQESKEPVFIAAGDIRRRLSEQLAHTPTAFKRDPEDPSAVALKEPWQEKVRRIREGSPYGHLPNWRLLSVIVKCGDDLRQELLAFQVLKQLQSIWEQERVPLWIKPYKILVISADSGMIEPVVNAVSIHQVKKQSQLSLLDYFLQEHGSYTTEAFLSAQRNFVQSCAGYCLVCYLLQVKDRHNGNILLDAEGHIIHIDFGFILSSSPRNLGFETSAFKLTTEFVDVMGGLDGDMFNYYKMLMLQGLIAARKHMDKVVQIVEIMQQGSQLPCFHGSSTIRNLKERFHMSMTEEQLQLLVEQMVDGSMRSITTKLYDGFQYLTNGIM
Sequence of PI4K2B (Q8TCG2 whole entry, species assumed): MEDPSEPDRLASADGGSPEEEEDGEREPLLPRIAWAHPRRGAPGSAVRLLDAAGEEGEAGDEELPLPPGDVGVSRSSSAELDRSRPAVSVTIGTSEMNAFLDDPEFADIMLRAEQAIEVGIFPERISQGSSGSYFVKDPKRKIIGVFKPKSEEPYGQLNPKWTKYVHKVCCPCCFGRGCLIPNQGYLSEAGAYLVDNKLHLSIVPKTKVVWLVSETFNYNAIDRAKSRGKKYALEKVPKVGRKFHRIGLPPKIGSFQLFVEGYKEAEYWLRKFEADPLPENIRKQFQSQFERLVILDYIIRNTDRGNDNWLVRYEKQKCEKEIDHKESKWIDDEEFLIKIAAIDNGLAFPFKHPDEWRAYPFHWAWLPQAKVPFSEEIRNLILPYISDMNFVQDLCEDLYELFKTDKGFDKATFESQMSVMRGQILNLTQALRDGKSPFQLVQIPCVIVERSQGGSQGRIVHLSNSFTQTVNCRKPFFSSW
Sequence of PI4K2A (Q9BTU6 whole entry, species assumed): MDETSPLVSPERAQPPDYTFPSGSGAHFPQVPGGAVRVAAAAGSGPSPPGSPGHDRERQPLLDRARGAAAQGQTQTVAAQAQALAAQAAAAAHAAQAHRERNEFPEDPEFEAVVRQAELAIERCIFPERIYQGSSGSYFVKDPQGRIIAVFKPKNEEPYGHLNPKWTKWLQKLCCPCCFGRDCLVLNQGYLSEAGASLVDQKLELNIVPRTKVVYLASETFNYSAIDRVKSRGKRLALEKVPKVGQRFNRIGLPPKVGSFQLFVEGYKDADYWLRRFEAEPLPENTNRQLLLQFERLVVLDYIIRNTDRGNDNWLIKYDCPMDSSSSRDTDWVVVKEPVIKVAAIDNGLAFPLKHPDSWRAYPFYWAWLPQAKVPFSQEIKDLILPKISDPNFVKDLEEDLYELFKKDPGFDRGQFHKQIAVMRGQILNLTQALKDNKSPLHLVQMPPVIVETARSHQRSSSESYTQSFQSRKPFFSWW
Sequence of PI3K (p120g) (P48736 whole entry): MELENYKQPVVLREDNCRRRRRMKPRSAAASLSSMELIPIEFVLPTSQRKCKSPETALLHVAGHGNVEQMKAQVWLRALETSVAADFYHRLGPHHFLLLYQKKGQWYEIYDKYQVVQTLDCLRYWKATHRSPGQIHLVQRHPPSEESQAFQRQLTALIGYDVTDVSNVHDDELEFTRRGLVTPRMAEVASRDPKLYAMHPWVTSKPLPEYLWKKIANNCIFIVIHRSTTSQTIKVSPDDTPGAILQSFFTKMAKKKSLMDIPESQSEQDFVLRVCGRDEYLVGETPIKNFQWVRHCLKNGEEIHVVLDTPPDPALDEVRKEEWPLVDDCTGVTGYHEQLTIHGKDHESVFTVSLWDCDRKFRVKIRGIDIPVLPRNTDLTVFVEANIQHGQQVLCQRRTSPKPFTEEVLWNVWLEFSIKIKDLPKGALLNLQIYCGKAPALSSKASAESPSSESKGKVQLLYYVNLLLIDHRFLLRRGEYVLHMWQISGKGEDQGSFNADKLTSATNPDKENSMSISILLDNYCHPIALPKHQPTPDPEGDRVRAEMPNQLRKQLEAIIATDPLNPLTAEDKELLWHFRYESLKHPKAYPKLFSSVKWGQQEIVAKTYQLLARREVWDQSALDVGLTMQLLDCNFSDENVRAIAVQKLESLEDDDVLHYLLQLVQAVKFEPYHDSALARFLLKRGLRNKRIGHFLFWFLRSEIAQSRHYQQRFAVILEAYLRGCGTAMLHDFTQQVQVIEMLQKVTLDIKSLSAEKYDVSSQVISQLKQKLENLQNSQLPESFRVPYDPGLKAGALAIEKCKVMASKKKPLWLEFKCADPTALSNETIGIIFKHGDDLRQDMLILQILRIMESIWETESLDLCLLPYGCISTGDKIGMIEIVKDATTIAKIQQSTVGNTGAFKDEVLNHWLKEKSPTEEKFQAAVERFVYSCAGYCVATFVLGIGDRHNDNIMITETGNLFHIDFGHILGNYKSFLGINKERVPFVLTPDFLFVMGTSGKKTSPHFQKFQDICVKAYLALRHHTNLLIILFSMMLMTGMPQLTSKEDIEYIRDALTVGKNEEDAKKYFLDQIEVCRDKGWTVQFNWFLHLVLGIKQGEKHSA
Sequence of PI4KA (P42356 whole entry, species assumed): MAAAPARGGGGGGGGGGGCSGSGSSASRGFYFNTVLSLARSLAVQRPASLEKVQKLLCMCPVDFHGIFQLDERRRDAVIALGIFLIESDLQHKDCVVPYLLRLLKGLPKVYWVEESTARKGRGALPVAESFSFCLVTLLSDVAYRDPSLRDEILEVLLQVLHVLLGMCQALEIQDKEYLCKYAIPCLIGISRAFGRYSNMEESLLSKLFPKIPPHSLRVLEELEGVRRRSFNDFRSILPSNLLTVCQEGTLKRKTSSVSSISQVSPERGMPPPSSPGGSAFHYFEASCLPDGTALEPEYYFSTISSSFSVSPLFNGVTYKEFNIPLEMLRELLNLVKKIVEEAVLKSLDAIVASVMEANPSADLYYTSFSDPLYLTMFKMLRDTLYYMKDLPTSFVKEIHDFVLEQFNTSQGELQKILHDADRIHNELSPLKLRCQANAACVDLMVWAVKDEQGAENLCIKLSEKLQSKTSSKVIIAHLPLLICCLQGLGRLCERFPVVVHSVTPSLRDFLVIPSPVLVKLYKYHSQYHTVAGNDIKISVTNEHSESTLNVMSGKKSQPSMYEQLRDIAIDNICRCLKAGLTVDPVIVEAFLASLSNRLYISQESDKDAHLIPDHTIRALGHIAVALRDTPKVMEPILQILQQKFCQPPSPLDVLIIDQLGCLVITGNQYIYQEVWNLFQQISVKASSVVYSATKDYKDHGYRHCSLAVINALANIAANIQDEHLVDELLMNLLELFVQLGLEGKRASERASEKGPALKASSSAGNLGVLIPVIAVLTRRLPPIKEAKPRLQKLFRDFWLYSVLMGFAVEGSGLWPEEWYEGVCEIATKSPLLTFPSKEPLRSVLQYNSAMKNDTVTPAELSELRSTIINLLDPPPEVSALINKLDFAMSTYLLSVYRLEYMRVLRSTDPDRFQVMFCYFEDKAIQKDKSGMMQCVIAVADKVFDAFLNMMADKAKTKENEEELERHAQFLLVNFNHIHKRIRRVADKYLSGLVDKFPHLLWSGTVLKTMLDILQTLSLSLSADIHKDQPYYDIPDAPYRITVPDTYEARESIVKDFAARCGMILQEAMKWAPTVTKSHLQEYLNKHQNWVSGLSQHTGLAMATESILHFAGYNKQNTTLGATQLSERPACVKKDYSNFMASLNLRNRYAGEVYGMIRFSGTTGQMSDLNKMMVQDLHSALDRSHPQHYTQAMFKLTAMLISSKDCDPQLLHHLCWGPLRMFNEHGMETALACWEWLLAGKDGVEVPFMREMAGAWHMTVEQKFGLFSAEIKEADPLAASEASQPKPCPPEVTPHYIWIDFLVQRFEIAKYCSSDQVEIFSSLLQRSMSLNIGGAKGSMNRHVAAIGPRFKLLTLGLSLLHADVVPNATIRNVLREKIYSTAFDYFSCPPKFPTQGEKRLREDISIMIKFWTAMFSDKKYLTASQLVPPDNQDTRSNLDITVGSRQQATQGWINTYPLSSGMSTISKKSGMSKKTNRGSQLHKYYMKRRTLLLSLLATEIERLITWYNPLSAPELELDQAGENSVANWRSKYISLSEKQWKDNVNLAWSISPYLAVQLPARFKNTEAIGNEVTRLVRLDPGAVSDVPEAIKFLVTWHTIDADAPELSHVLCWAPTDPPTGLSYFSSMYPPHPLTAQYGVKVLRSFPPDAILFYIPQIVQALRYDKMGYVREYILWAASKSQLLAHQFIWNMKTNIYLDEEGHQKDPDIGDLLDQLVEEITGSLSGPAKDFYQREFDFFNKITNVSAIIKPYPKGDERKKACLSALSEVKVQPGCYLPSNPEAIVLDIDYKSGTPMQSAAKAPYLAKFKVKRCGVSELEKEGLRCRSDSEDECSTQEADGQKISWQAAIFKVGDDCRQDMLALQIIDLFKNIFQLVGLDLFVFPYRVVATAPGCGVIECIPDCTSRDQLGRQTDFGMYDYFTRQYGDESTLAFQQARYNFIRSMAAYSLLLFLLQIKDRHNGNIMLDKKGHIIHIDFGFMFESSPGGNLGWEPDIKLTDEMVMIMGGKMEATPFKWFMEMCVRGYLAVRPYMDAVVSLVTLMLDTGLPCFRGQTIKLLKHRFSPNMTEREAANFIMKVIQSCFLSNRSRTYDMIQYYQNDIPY

An IC50 (PI3KB (p110b/p85a)) of 5.4 µM, an IC50 (PI3KA (p110a/p85a)) of 3.4 µM and an IC50 (PI3K (p120g)) greater than 1 µM were found for `Cc1cc(CNc2cc(C)nc3c(-c4ccc5c(c4)c(C)nn5C)c(C)nn23)ccn1` [3-(1,3-dimethyl-1H-indazol-5-yl)-2,5-dimethyl-N-[(2-methylpyridin-4-yl)methyl]pyrazolo[1,5-a]pyrimidin-7-amine] in this work. For the same molecule, the IC50 (PI4K2B) was greater than 10 µM, the IC50 (PI4KA) was 1.1 µM and the IC50 (PI4KB) was 0.0006 µM. The IC50 (PI4K2A) was greater than 10 µM.

From patent US20260240762A1, “COMPOUND AND FORMULATION FOR SYSTEMIC THERAPY BY ORAL TRANSMUCOSAL ADMINISTRATION” (CUROVIR AB, priority 2023, published 2026)
